Data on seven compounds can be found in ChEMBL document CHEMBL1157172, “Rational design, synthesis, and in vivo evaluation of the antileukemic activity of six new alkylating steroidal esters” (Bioorg Med Chem, 2008).

Data set [1] concerns P388. The data set can be described thus: Antitumor activity in BDF1 mouse bearing P388 cells assessed as mean survival days at 200 mg/kg/day, ip. It counts as functional. Particulars: route intraperitoneal.
The subject of data set [2] is L1210. The data set can be described thus: Antitumor activity in BDF1 mouse L1210 cells assessed as mean survival days at 200 mg/kg/day, ip. Format: functional. The settings on record: route intraperitoneal.
In data set [3] the test system is P388. The data set can be described thus: Antitumor activity in BDF1 mouse bearing P388 cells assessed as number of cured mouse at 200 mg/kg/day, ip after 90 days. Format: functional, organism-based.
Data set [4] has as its system P388. The data set can be described thus: Increase in median life span in BDF1 mouse bearing P388 cells at 200 mg/kg/day, ip relative to corn oil. Format: functional. Particulars: route intraperitoneal.
The test system of data set [5] is L1210. The data set can be described thus: Antitumor activity in BDF1 mouse L1210 cells assessed as number of cured mouse at 200 mg/kg/day, ip after 90 days. It counts as functional, organism-based.
For a further data set, the system named is Mus musculus. The data set can be described thus: (§1) Acute toxicity in ip dosed BALB/c mouse after 30 days. It counts as organism-based. The settings on record: in vivo, 720 h.
Data set [6] in a line: as §1. It counts as organism-based. Particulars: BALB/c, in vivo.
Data set [7] concerns L1210. Put plainly: Increase in median life span in BDF1 mouse L1210 cells at 200 mg/kg/day, ip relative to corn oil. Format: functional. The settings on record: route intraperitoneal.
In data set [8] the test system is P388. The data set can be described thus: Antitumor activity in BDF1 mouse bearing P388 cells assessed as number of cured mouse at 22 mg/kg/day, ip after 90 days. It counts as functional, organism-based.
Data set [9] relates to L1210. The data set can be described thus: Increase in median life span in BDF1 mouse L1210 cells at 22 mg/kg/day, ip relative to corn oil. Particulars: route intraperitoneal. It counts as functional.
The test system of data set [10] is P388. The data set can be described thus: Increase in median life span in BDF1 mouse bearing P388 cells at 22 mg/kg/day, ip relative to corn oil. It counts as functional. The settings on record: route intraperitoneal.
The test system of data set [11] is P388. The data set can be described thus: Antitumor activity in BDF1 mouse bearing P388 cells assessed as mean survival days at 22 mg/kg/day, ip. It counts as functional. Particulars: route intraperitoneal.
The subject of data set [12] is L1210. Put plainly: Antitumor activity in BDF1 mouse L1210 cells assessed as number of cured mouse at 22 mg/kg/day, ip after 90 days. Format: functional, organism-based.
For data set [13], the system named is L1210. Put plainly: Antitumor activity in BDF1 mouse L1210 cells assessed as mean survival days at 22 mg/kg/day, ip. Format: functional. Particulars: route intraperitoneal.
Data set [14] relates to L1210. Put plainly: Increase in median life span in BDF1 mouse L1210 cells at 12.5 mg/kg/day, ip relative to corn oil. Format: functional. The settings on record: route intraperitoneal.
In data set [15] the test system is L1210. Put plainly: Antitumor activity in BDF1 mouse L1210 cells assessed as mean survival days at 12.5 mg/kg/day, ip. It counts as functional. Particulars: route intraperitoneal.
The subject of data set [16] is P388. The data set can be described thus: Increase in median life span in BDF1 mouse bearing P388 cells at 12.5 mg/kg/day, ip relative to corn oil. It counts as functional. Particulars: route intraperitoneal.
Data set [17] concerns L1210. The data set can be described thus: Antitumor activity in BDF1 mouse L1210 cells assessed as number of cured mouse at 12.5 mg/kg/day, ip after 90 days. It counts as functional, organism-based.
For data set [18], the system named is P388. The data set can be described thus: Antitumor activity in BDF1 mouse bearing P388 cells assessed as mean survival days at 12.5 mg/kg/day, ip. Particulars: route intraperitoneal. It counts as functional.
The subject of data set [19] is P388. Put plainly: Antitumor activity in BDF1 mouse bearing P388 cells assessed as number of cured mouse at 12.5 mg/kg/day, ip after 90 days. It counts as functional, organism-based.
The test system of data set [20] is P388. The data set can be described thus: Increase in median life span in BDF1 mouse bearing P388 cells at 120 mg/kg/day, ip relative to corn oil. It counts as functional. Particulars: route intraperitoneal.
Data set [21] relates to L1210. Put plainly: Antitumor activity in BDF1 mouse L1210 cells assessed as number of cured mouse at 120 mg/kg/day, ip after 90 days. It counts as functional, organism-based.
The test system of data set [22] is L1210. Put plainly: Antitumor activity in BDF1 mouse L1210 cells assessed as mean survival days at 120 mg/kg/day, ip. Format: functional. Particulars: route intraperitoneal.
In data set [23] the test system is L1210. The data set can be described thus: Increase in median life span in BDF1 mouse L1210 cells at 120 mg/kg/day, ip relative to corn oil. Format: functional. The settings on record: route intraperitoneal.
For data set [24], the system named is P388. The data set can be described thus: Antitumor activity in BDF1 mouse bearing P388 cells assessed as mean survival days at 120 mg/kg/day, ip. It counts as functional. The settings on record: route intraperitoneal.
In data set [25] the test system is L1210. The data set can be described thus: Antitumor activity in BDF1 mouse L1210 cells assessed as number of cured mouse at 50 mg/kg/day, ip after 90 days. It counts as functional, organism-based.
Data set [26] concerns P388. The data set can be described thus: Increase in median life span in BDF1 mouse bearing P388 cells at 50 mg/kg/day, ip relative to corn oil. Particulars: route intraperitoneal. It counts as functional.
Data set [27] deals with L1210. The data set can be described thus: Increase in median life span in BDF1 mouse L1210 cells at 50 mg/kg/day, ip relative to corn oil. Format: functional. Particulars: route intraperitoneal.
The test system of data set [28] is P388. The data set can be described thus: Antitumor activity in BDF1 mouse bearing P388 cells assessed as number of cured mouse at 50 mg/kg/day, ip after 90 days. It counts as functional, organism-based.
Data set [29] has as its system L1210. Put plainly: Antitumor activity in BDF1 mouse L1210 cells assessed as mean survival days at 50 mg/kg/day, ip. It counts as functional. The settings on record: route intraperitoneal.
The test system of data set [30] is P388. Put plainly: Antitumor activity in BDF1 mouse bearing P388 cells assessed as mean survival days at 50 mg/kg/day, ip. Format: functional. Particulars: route intraperitoneal.
The test system of data set [31] is P388. Put plainly: Antitumor activity in BDF1 mouse bearing P388 cells assessed as mean survival days at 30 mg/kg/day, ip. Particulars: route intraperitoneal. Format: functional.
Data set [32] concerns L1210. The data set can be described thus: Antitumor activity in BDF1 mouse L1210 cells assessed as mean survival days at 30 mg/kg/day, ip. Format: functional. The settings on record: route intraperitoneal.
Data set [33] has as its system P388. Put plainly: Increase in median life span in BDF1 mouse bearing P388 cells at 30 mg/kg/day, ip relative to corn oil. It counts as functional. Particulars: route intraperitoneal.
For data set [34], the system named is L1210. The data set can be described thus: Antitumor activity in BDF1 mouse L1210 cells assessed as number of cured mouse at 30 mg/kg/day, ip after 90 days. Format: functional, organism-based.
Data set [35] concerns L1210. The data set can be described thus: Increase in median life span in BDF1 mouse L1210 cells at 30 mg/kg/day, ip relative to corn oil. It counts as functional. The settings on record: route intraperitoneal.
The test system of data set [36] is L1210. The data set can be described thus: Increase in median life span in BDF1 mouse L1210 cells at 7.5 mg/kg/day, ip relative to corn oil. Format: functional. The settings on record: route intraperitoneal.
For data set [37], the system named is P388. The data set can be described thus: Antitumor activity in BDF1 mouse bearing P388 cells assessed as mean survival days at 7.5 mg/kg/day, ip. It counts as functional. Particulars: route intraperitoneal.
Data set [38] relates to L1210. The data set can be described thus: Antitumor activity in BDF1 mouse L1210 cells assessed as mean survival days at 7.5 mg/kg/day, ip. Format: functional. Particulars: route intraperitoneal.
The test system of data set [39] is P388. Put plainly: Antitumor activity in BDF1 mouse bearing P388 cells assessed as number of cured mouse at 7.5 mg/kg/day, ip after 90 days. Format: functional, organism-based.
The subject of data set [40] is L1210. Put plainly: Antitumor activity in BDF1 mouse L1210 cells assessed as number of cured mouse at 7.5 mg/kg/day, ip after 90 days. It counts as functional, organism-based.
The subject of data set [41] is P388. Put plainly: Increase in median life span in BDF1 mouse bearing P388 cells at 7.5 mg/kg/day, ip relative to corn oil. The settings on record: route intraperitoneal. Format: functional.

Each structure is given as a SMILES string. Activity calls are given as the source filed them. No cut-off for these calls is given here.

As a reminder, the LD50 is the dose expected to kill half of the subjects tested. A lower LD50 goes with greater toxicity.

In the case of `CC(=O)N[C@H]1CC[C@H]2[C@@H]3C(=O)C=C4C[C@@H](OC(=O)c5ccc(C)c(N(CCCl)CCCl)c5)CC[C@]4(C)[C@H]3CC[C@]12C`, the Survival with P388 [1] was 14.6 days; in the data set with L1210 [2], 13.7 days. Further, the outcome in the data set with P388 [3] and in the data set on L1210 [5] was inactive. For the same compound, the results for the Activity in the data set on P388 [4] and in the data set on L1210 [7] were 153% and 127%, respectively. The compound further yielded an LD10 with Mus musculus of 400 mg/kg. In [6], this compound had an LD50 at 720 h of 600 mg/kg.

Turning to `CC(=O)N[C@H]1CC[C@H]2[C@@H]3C(=O)C=C4C[C@@H](OC(=O)CCCc5ccc(N(CCCl)CCCl)cc5)CC[C@]4(C)[C@H]3CC[C@]12C`, the result in the data set on P388 [8] and in the data set on L1210 [12] was inactive. In addition, the Activity is recorded as 150% in the data set with L1210 [9] and 198% in the data set with P388 [10]. For the same compound, the Survival in the data set with P388 [11] came to 18.8 days; in the data set on L1210 [13], 16.2 days. In addition, the LD10 with Mus musculus was 44 mg/kg. This compound also displayed an LD50 at 720 h in data set [6] of 87 mg/kg.

`CC(=O)N[C@H]1CC[C@H]2[C@@H]3C(=O)C=C4C[C@@H](OC(=O)Cc5ccc(N(CCCl)CCCl)cc5)CC[C@]4(C)[C@H]3CC[C@]12C`: the Activity in the data set with L1210 [14] is given as 243%; in the data set with P388 [16], 314%. The Survival in the data set on L1210 [15] stood at 26.3 days; in the data set on P388 [18], 29.8 days. The outcome in the data set with L1210 [17] and in the data set with P388 [19] was inactive. In addition, in the data set with Mus musculus, the LD10 was determined as 25 mg/kg. In addition, the LD50 at 720 h in data set [6] turned out to be 75 mg/kg.

With `CC(=O)N[C@H]1CC[C@H]2[C@@H]3NC(=O)C=C4C[C@@H](OC(=O)c5ccc(C)c(N(CCCl)CCCl)c5)CC[C@]4(C)[C@H]3CC[C@]12C`, the Activity in the data set with P388 [20] is listed as 300%; in the data set with L1210 [23], 189.8%. The result with L1210 [21] was inactive. Also, the Survival with L1210 [22] stood at 20.5 days; in the data set with P388 [24], 28.5 days. The LD10 in the data set with Mus musculus amounted to 240 mg/kg. Also, the 50% lethal dose (LD50) at 720 h in data set [6] was found to be 280 mg/kg.

For `CC(=O)N[C@H]1CC[C@H]2[C@@H]3NC(=O)C=C4C[C@@H](OC(=O)CCCc5ccc(N(CCCl)CCCl)cc5)CC[C@]4(C)[C@H]3CC[C@]12C`, the result in the data set on L1210 [25] and in the data set on P388 [28] was inactive. Further, the Activity in the data set on P388 [26] turned out to be 231%; in the data set with L1210 [27], 140.7%. In the data set with Mus musculus, the LD10 amounted to 100 mg/kg. The LD50 at 720 h in data set [6] amounted to 180 mg/kg. For the same compound, the results for the Survival in the data set on L1210 [29] and in the data set with P388 [30] were 15.2 days and 22 days, respectively.

As for `CC(=O)N[C@H]1CC[C@H]2[C@@H]3NC(=O)C=C4C[C@@H](OC(=O)Cc5ccc(N(CCCl)CCCl)cc5)CC[C@]4(C)[C@H]3CC[C@]12C`, the Survival with P388 [31] came out at 21 days; in the data set on L1210 [32], 15.6 days. Besides, the Activity in the data set on P388 [33] is reported as 221%; with L1210 [35], 144.4%. In addition, the result in the data set on L1210 [34] was inactive. For the same compound, in the data set on Mus musculus, the LD10 was 60 mg/kg. The compound also came in with an LD50 at 720 h in data set [6] of 80 mg/kg.

On to `O=C(O)CCCc1ccc(N(CCCl)CCCl)cc1` [CHLORAMBUCIL], for which the Activity in the data set with L1210 [36] is listed as 114%; in the data set on P388 [41] it was 155%. In addition, the Survival in the data set with P388 [37] amounted to 14.7 days; in the data set on L1210 [38] it was 12.3 days. The outcome in the data set with P388 [39] and with L1210 [40] was inactive. Further, the LD10 in the data set with Mus musculus stood at 15 mg/kg. Besides, the LD50 at 720 h in data set [6] worked out at 24 mg/kg.
